From patent publication US8697691B2, “Alkyl 3-((2-amidoethyl)amino)-8-azabicyclo[3.2.1]octane-8-carboxylate analogs as selective M1 agonists and methods of making and using same” (Vanderbilt University, priority 2009, dated 2014)
Where two headings read alike, the source gives them in different places.

Target: T1, human M1 receptor (Homo sapiens, UniProt P11229)
T1 construct: host or cells: CHO-K1
T1 sequence (P11229 1-460): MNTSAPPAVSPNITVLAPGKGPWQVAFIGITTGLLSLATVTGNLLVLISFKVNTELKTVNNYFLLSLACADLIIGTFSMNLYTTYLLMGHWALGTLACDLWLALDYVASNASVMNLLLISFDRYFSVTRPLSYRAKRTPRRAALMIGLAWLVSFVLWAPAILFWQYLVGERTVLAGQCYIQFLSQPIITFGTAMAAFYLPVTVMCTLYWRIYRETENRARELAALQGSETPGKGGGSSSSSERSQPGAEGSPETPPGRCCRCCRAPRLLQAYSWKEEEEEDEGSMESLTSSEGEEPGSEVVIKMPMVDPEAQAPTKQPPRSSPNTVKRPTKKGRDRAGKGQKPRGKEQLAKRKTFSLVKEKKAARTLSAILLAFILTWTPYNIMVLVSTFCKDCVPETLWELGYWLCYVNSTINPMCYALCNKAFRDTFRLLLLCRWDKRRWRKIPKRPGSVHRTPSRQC
Assay: Calcium mobilization assay, CHO-K1 cells stably expressing hM1 (high throughput, FDSS 6000)
Assay type: cell-based
Details: for Emax: CHO-K1, read-out: Efficacy (% Max ACh)
Description: Chinese hamster ovary (CHO-K1) cells stably expressing rat (r)M1 were purchased from the American Type Culture Collection and cultured according to their indicated protocol. CHO cells stably expressing human (h)M2, hM3, and hM5 were described previously (Levey et al., 1991); hM1 and hM4 cDNAs were purchased from Missouri S&T cDNA Resource; rM4 cDNA was provided by T. I. Bonner (National Institutes of Health, Bethesda, Md.). hM1, hM4, and rM4 cDNAs were used to stably transfect CHO-K1 cells purchased from the American Type Culture Collection using Lipofectamine2000. To make stable hM2, hM4 and rM4 cell lines for use in calcium mobilization assays, these cells also were stably transfected with a chimeric G-protein (Gqi5) (provided by B. R. Conklin, University of California, San Francisco) using Lipofectamine 2000. rM1, hM3, and hM5 cells were grown in Ham's F-12 medium containing 10% heat-inactivated fetal bovine serum (FBS), 20 mM HEPES, and 50 μg/mL G418 sulfate. hM2-Gqi5 and hM4-Gqi5 cells were grown in the same medium also containing 500 μg/mL Hygromycin B. Stable rM4-Gqi5 cells were grown in DMEM containing 10% heat-inactivated FBS, 20 mM HEPES, 400 μg/mL G418 sulfate, and 500 μg/mL Hygromycin B. The rat M1 Y381A orthosteric mutant receptor cDNA was generated using the Quik-Change site-directed mutagenesis kit (Stratagene) and verified by sequencing. CHO-K1 cells were stably transfected with this cDNA using Lipofectamine2000 and screened for expression based on calcium mobilization in response to the allosteric M1 agonist N-desmethylclozapine.
For high throughput measurement of agonist-evoked increases in intracellular calcium, CHO-K1 cells stably expressing muscarinic receptors were plated in growth medium lacking G418 and hygromycin at 15,000 cells/20 μL/well (hM1, hM2-Gqi5, hM3, hM4-Gq15, and hM5) in Greiner 384-well black-walled, tissue culture (TC)-treated, clear-bottom plates (VWR). Cells were incubated overnight at 37° C. and 5% CO2. The next day, cells were washed using an ELX 405 (BioTek) with three washes (50 μL) of assay buffer then aspirated to 15 μL. Next, 5 μL of 8 μM Fluo-4/acetoxymethyl ester (Invitrogen, Carlsbad, Calif.) prepared as a 2.3 mM stock in DMSO and mixed in a 1:1 ratio with 10% (w/v) Pluronic F-127 and diluted in assay buffer was added to the wells and the cell plates were incubated for 45 min at 37° C. and 5% CO2. Dye was removed by washing with the ELX 405 (three 50 μL washes of assay buffer) then aspirated to 20 μL. Agonist and compound master plates were formatted in an 11 point CRC format (1:3 dilutions) in 100% DMSO with a starting concentration of 10 mM using the BRAVO liquid handler (Agilent). Test compound CRCs were then transferred to daughter plates ([…]) using the Echo acoustic plate reformatter (Labcyte, Sunnyvale, Calif.) and then diluted into assay buffer (40 μL) to a 2× stock using a Thermo Fisher Combi (Thermo Fisher Scientific, Waltham, Mass.). Calcium flux was measured using the Functional Drug Screening System (FDSS) 6000 (Hamamatsu Corporation, Tokyo, Japan) as an increase in the fluorescent static ratio. 20 μL of Agonist Compounds were applied to cells using the automated system of the FDSS 6000 at 4 s into the 300 s protocol and the data were collected at 1 Hz. Concentration-response curves were generated using a four-parameter logistical equation in XLfit curve fitting software (IDBS, Bridgewater, N.J.) for Excel (Microsoft, Redmond, Wash.) or Prism (GraphPad Software, Inc., San Diego, Calif.).

| Structure (SMILES) | Emax | EC50 (figure legends FIG. 1.0, 1.1, dose response data, read-out: EC50 for hM1) | EC50 | EC50 (human M1, agonist-evoked calcium mobilization in CHO-K1 cells, read-out: Potency (EC50)) |
| --- | --- | --- | --- | --- |
| CCOC(=O)N1[C@@H]2CC[C@H]1C[C@H](NCCNC(=O)c1ccccc1)C2 [Example 26, ethyl 3-((3-exo)-(2-benzamidoethyl)amino)-8-azabicyclo[3.2.1]octane-8-carboxylate] | 57% | 1.2 µM |  |  |
| CCOC(=O)N1[C@@H]2CC[C@H]1C[C@@H](NCCNC(=O)c1ccccc1)C2 [Example 27, ethyl 3-((3-endo)-(2-benzamidoethyl)amino)-8-azabicyclo[3.2.1]octane-8-carboxylate] | 37% |  | 0.214 µM | 0.21 µM |
